In PMC8217170, “Phase Ib dose-escalation study of the hypoxia-modifier Myo-inositol trispyrophosphate in patients with hepatopancreatobiliary tumors” (Nature Communications, 2021):

Test: Phase Ib dose escalation: safety and tolerability (CTCAE v4.03), MTD
Format: in vivo, human
Set-up: key to Hypercalcemia, CTCAE-Grade / Hypophosphatemia, CTCAE-Grade / Cholestasis, CTCAE-Grade / Nausea, CTCAE-Grade / Hypertension, CTCAE-Grade / Upper respiratory tract infection, CTCAE-Grade / Hyponatremia, CTCAE-Grade / Hypomagnesemia, CTCAE-Grade / Ascites & death due to rapid progression of malignancy, CTCAE-Grade / Hypokalemia, CTCAE-Grade / Pyrexia, CTCAE-Grade / Hyperphosphatemia, CTCAE-Grade / AV Block 1°, CTCAE-Grade / Palpations, CTCAE-Grade: 1 is the mildest form of the specific symptom; 5 is death
Details: for Hypercalcemia, CTCAE-Grade: relationship to IMP: Definitively
Text: This first-in-patient investigator-initiated phase Ib dose-escalation study followed a 3 + 3 dose-escalation scheme with a planned maximal inclusion of 48 participants allocated to eight cohorts of increasing doses. Outcomes were safety, tolerability, pharmacokinetics, and preliminary efficacy of ITPP with participants in this exploratory, prospective, open-label and unblinded, unrandomized, single-center investigation being enrolled at the University Hospital Zurich (USZ), Switzerland. Written informed consent was obtained of all participants before study inclusion after a time of consideration of at least 24 h. Written consent included the reporting and publication of individual, anonymized patient data. The study adhered to the principles of the Declaration of Helsinki, current good clinical practice guidelines and all ethical regulations. The study protocol was approved by the responsible independent ethics committee of Zurich (KEK-ZH-Nr. 2014-0374) and the national regulatory authority Swissmedic (2015DR1009) and is provided in the Supplementary Note 1. The study setup was published before inclusion start[55] and the trial first registered at ClinicalTrials.gov (NCT02528526) on 11/11/2014. After 6 sequential reviews requiring minor editorial changes, final registration at ClinicalTrials.gov was obtained on the 08/18/2015. The first patient was included in the study 04/13/2015, with treatment started on the 04/27/2015. 4 patients were included in the trial before final registration at ClinicalTrials.gov (04/13/2015–07/20/2015). The last patient was included on the 06/12/2018, treatment started on the 06/18/2018 and the last treatment administered on 07/06/2018. Data cut-off for the study was the 12/31/2018. The manuscript was written in compliance with ICMJE guidelines.
Primary objectives were (i) assessment of the safety and tolerability of increasing doses of ITPP, and (ii) establishment of the MTD (primary endpoint) according to the dose escalation schema. The primary outcome was measured by collection of adverse effects information according to Common Terminology Criteria for Adverse Events (CTCAE, US National Cancer Institute, version 4.03). Safety objectives and outcomes were identical with the primary endpoint.
The study drug (brand name: OXY111A) was intravenously administered in 9 infusions, each lasting 8 h, over 3 weeks in an outpatient setting at the Phase 1 unit of the USZ Clinical Trials Center. Due to its anionic properties, ITPP acts a potent chelator of calcium. Therefore, administration with CaCl2 (Baxter) at a 1:0.75 molar ratio has been determined to prevent hypocalcaemia. Respective doses were calculated based on body surface area (DuBois/DuBois formula). Cohort 1 started at weekly doses of 5600 mg/m^2 weekly, equal to the maximal weekly dose tested in healthy volunteers (unpublished data from Normoxys®). Dose escalation was performed according to the predefined scheme (Fig. 1a, Supplementary Note 1: page 6) up to a maximum weekly dose of 43,700 mg/m^2. During infusion days, participants had continuous monitoring of vital signs and daily 12-electrode electrocardiograms. Electrolytes measurements and venous blood gas analyses were performed three-hourly, while complete blood count, coagulation and routine kidney/liver parameters were assessed twice daily.
Severity of encountered AE was assessed following the CTCAE guidelines. Serious AE were defined as events being life-threatening, necessitating hospitalization, resulting in death or birth defects. DLT was defined as any AE ≥ grade 3 and sTET as any grade 2 AE considered to be definitely, probably or possibly related to ITPP. […] MTD was defined as the dose preceding the level at which 1 patient experienced a DLT or ≥3 patients experienced a sTET (Supplementary Note 1: page 6). The window for DLT/sTET/MTD assessment was from first dose of ITPP until first dose of chemotherapy or 10d following the last ITPP infusion. […]

[1] = cohort 1, SAE, relationship to IMP: Unrelated

O=P1(O)OC2C3OP(=O)(O)OP(=O)(O)OC3C3OP(=O)(O)OP(=O)(O)OC3C2OP(=O)(O)O1 (centres unmarked) [ITPP, Myo-inositol trispyrophosphate]
Number of treatment-related toxicities (TET, at least possibly related to ITPP) (28 patients, all cohorts): 32
Hypomagnesemia, patients (all CTCAE grade I): 5/28
Hypophosphatemia, patients (all CTCAE grade I): 4/28
Hypercalcemia of free ionized calcium, share of patients (all cohorts): 67.9 % of patients
Hypercalcemia, share of ITPP-related AE (all cohorts): 59.4%
Hypomagnesemia/-phosphatemia, share of ITPP-related AE (all cohorts): 28.1%
Number of AE unlikely to be ITPP-induced (all cohorts): 24
Number of serious adverse events (SAE) (all cohorts): 7
Share of AE at least possibly related to ITPP (all cohorts): 57%
AV Block 1° (AE, not ITPP-related) (all cohorts, n = 28, total (%)): Total: 1 (3.6%)
Acute kidney injury grade 3 (AE, not ITPP-related) (all cohorts, n = 28, total (%)): Total: 1 (3.6%)
Ascites due to oncological progress (AE, not ITPP-related) (all cohorts, n = 28, total (%)): Total: 3 (10.7%)
C. difficile enteritis (AE, not ITPP-related) (all cohorts, n = 28, total (%)): Total: 1 (3.6%)
Cholestasis (AE, not ITPP-related) (all cohorts, n = 28, total (%)): Total: 1 (3.6%)
Fatigue (AE, not ITPP-related) (all cohorts, n = 28, total (%)): Total: 1 (3.6%)
Hypercalcemia (TET) (all cohorts, n = 28, total (%)): 19 (67.9%)
Hyperphosphatemia (TET) (all cohorts, n = 28, total (%)): Total: 1 (3.6%)
Hypertension (TET) (all cohorts, n = 28, total (%)): Total: 3(10.7%)
Hypokalemia (AE, not ITPP-related) (all cohorts, n = 28, total (%)): Total: 2 (7.1%)
Hypomagnesemia (TET) (all cohorts, n = 28, total (%)): Total: 5 (17.9%)
Hyponatremia (AE, not ITPP-related) (all cohorts, n = 28, total (%)): Total: 3 (10.7%)
Hypophosphatemia (TET) (all cohorts, n = 28, total (%)): Total: 4 (14.3%)
Icterus due to malignant obstruction (AE, not ITPP-related) (all cohorts, n = 28, total (%)): Total: 1 (3.6%)
Lower gastrointestinal bleeding (AE, not ITPP-related) (all cohorts, n = 28, total (%)): Total: 1 (3.6%)
Nausea & vomiting due to malignant infiltration of stomach (AE, not ITPP-related) (all cohorts, n = 28, total (%)): Total: 1 (3.6%)
Nausea (AE, not ITPP-related) (all cohorts, n = 28, total (%)): Total: 1 (3.6%)
Neutropenia (AE, not ITPP-related) (all cohorts, n = 28, total (%)): Total: 1 (3.6%)
Palpitations (AE, not ITPP-related) (all cohorts, n = 28, total (%)): Total: 1 (3.6%)
Pyrexia (AE, not ITPP-related) (all cohorts, n = 28, total (%)): Total: 2 (7.1%)
Upper respiratory tract infection (AE, not ITPP-related) (all cohorts, n = 28, total (%)): Total: 3 (10.7%)
Hyperphosphatemia, patients (asymptomatic, grade I): One
AV Block 1° (AE, not ITPP-related) (cohort 1, 1866 mg/m^2): 0
Acute kidney injury grade 3 (AE, not ITPP-related) (cohort 1, 1866 mg/m^2): 0
C. difficile enteritis (AE, not ITPP-related) (cohort 1, 1866 mg/m^2): 0
Cholestasis (AE, not ITPP-related) (cohort 1, 1866 mg/m^2): 0
Fatigue (AE, not ITPP-related) (cohort 1, 1866 mg/m^2): 0
Hypercalcemia (TET) (cohort 1, 1866 mg/m^2): 0
Hyperphosphatemia (TET) (cohort 1, 1866 mg/m^2): 0
Hypertension (TET) (cohort 1, 1866 mg/m^2): 0
Hypokalemia (AE, not ITPP-related) (cohort 1, 1866 mg/m^2): 0
Hypomagnesemia (TET) (cohort 1, 1866 mg/m^2): 0
Hyponatremia (AE, not ITPP-related) (cohort 1, 1866 mg/m^2): 0
Hypophosphatemia (TET) (cohort 1, 1866 mg/m^2): 0
Icterus due to malignant obstruction (AE, not ITPP-related) (cohort 1, 1866 mg/m^2): 0
Nausea & vomiting due to malignant infiltration of stomach (AE, not ITPP-related) (cohort 1, 1866 mg/m^2): 0
Nausea (AE, not ITPP-related) (cohort 1, 1866 mg/m^2): 0
Neutropenia (AE, not ITPP-related) (cohort 1, 1866 mg/m^2): 0
Palpitations (AE, not ITPP-related) (cohort 1, 1866 mg/m^2): 0
Upper respiratory tract infection (AE, not ITPP-related) (cohort 1, 1866 mg/m^2): 0
Pyrexia, CTCAE-Grade (cohort 1, AE, relationship to IMP: Unrelated): 1
Ascites & death due to rapid progression of malignancy, CTCAE-Grade [1]: 5
Lower gastrointestinal bleeding, CTCAE-Grade [1]: 2
AV Block 1° (AE, not ITPP-related) (cohort 2, 3732 mg/m^2): 0
Acute kidney injury grade 3 (AE, not ITPP-related) (cohort 2, 3732 mg/m^2): 0
Ascites due to oncological progress (AE, not ITPP-related) (cohort 2, 3732 mg/m^2): 0
C. difficile enteritis (AE, not ITPP-related) (cohort 2, 3732 mg/m^2): 0
Cholestasis (AE, not ITPP-related) (cohort 2, 3732 mg/m^2): 0
Fatigue (AE, not ITPP-related) (cohort 2, 3732 mg/m^2): 0
Hyperphosphatemia (TET) (cohort 2, 3732 mg/m^2): 0
Hypertension (TET) (cohort 2, 3732 mg/m^2): 0
Hypokalemia (AE, not ITPP-related) (cohort 2, 3732 mg/m^2): 0
Hyponatremia (AE, not ITPP-related) (cohort 2, 3732 mg/m^2): 0
Hypophosphatemia (TET) (cohort 2, 3732 mg/m^2): 0
Icterus due to malignant obstruction (AE, not ITPP-related) (cohort 2, 3732 mg/m^2): 0
Lower gastrointestinal bleeding (AE, not ITPP-related) (cohort 2, 3732 mg/m^2): 0
Nausea (AE, not ITPP-related) (cohort 2, 3732 mg/m^2): 0
Neutropenia (AE, not ITPP-related) (cohort 2, 3732 mg/m^2): 0
Palpitations (AE, not ITPP-related) (cohort 2, 3732 mg/m^2): 0
Pyrexia (AE, not ITPP-related) (cohort 2, 3732 mg/m^2): 0
Upper respiratory tract infection (AE, not ITPP-related) (cohort 2, 3732 mg/m^2): 0
Hypercalcemia, CTCAE-Grade (cohort 2, AE): 1
Hypomagnesemia, CTCAE-Grade (cohort 2, AE, relationship to IMP: Probably): 1
Nausea & Vomiting necessitating hospitalisation, CTCAE-Grade (cohort 2, SAE, relationship to IMP: Unrelated): 2
AV Block 1° (AE, not ITPP-related) (cohort 3, 5600 mg/m^2): 0
Acute kidney injury grade 3 (AE, not ITPP-related) (cohort 3, 5600 mg/m^2): 0
Ascites due to oncological progress (AE, not ITPP-related) (cohort 3, 5600 mg/m^2): 0
Fatigue (AE, not ITPP-related) (cohort 3, 5600 mg/m^2): 0
Hyperphosphatemia (TET) (cohort 3, 5600 mg/m^2): 0
Hypertension (TET) (cohort 3, 5600 mg/m^2): 0
Hypokalemia (AE, not ITPP-related) (cohort 3, 5600 mg/m^2): 0
Hypomagnesemia (TET) (cohort 3, 5600 mg/m^2): 0
Hyponatremia (AE, not ITPP-related) (cohort 3, 5600 mg/m^2): 0
Icterus due to malignant obstruction (AE, not ITPP-related) (cohort 3, 5600 mg/m^2): 0
Lower gastrointestinal bleeding (AE, not ITPP-related) (cohort 3, 5600 mg/m^2): 0
Nausea & vomiting due to malignant infiltration of stomach (AE, not ITPP-related) (cohort 3, 5600 mg/m^2): 0
Nausea (AE, not ITPP-related) (cohort 3, 5600 mg/m^2): 0
Neutropenia (AE, not ITPP-related) (cohort 3, 5600 mg/m^2): 0
Pyrexia (AE, not ITPP-related) (cohort 3, 5600 mg/m^2): 0
Upper respiratory tract infection (AE, not ITPP-related) (cohort 3, 5600 mg/m^2): 0
Hypercalcemia, CTCAE-Grade (cohort 3, AE): 1
Hypophosphatemia, CTCAE-Grade (cohort 3, AE, relationship to IMP: Probably): 1
Palpations, CTCAE-Grade (cohort 3, AE, relationship to IMP: Unrelated): 1
Cholestasis, CTCAE-Grade (cohort 3, SAE, relationship to IMP: Unlikely): 1
C. difficile enteritis, CTCAE-Grade (cohort 3, SAE, relationship to IMP: Unrelated): 3
AV Block 1° (AE, not ITPP-related) (cohort 4, 7000 mg/m^2): 0
C. difficile enteritis (AE, not ITPP-related) (cohort 4, 7000 mg/m^2): 0
Cholestasis (AE, not ITPP-related) (cohort 4, 7000 mg/m^2): 0
Hyperphosphatemia (TET) (cohort 4, 7000 mg/m^2): 0
Hypokalemia (AE, not ITPP-related) (cohort 4, 7000 mg/m^2): 0
Hypomagnesemia (TET) (cohort 4, 7000 mg/m^2): 0
Hyponatremia (AE, not ITPP-related) (cohort 4, 7000 mg/m^2): 0
